Laboratory results: US10787423B2, “Piperazine and piperidine derivatives, their synthesis and use thereof in inhibiting VDAC oligomerization, apoptosis and mitochondria dysfunction” (THE NATIONAL INSTITUTE FOR BIOTECHNOLOGY IN THE NEGEV LTD., priority 2015, dated 2020)

Tests used:
purified rat VDAC1 = target: T1, purified rat VDAC1 (Rattus norvegicus, UniProt Q9Z2L0); assay: VDAC1 channel conductance in planar lipid bilayer; format: biochemical; conditions: for IC50 / Max Inhibition (maximal reduction in channel conductance): planar lipid bilayer, measured at +10 mV and −10 mV
T1 construct: from tissue; host or cells: rat liver mitochondria
T1 sequence (Q9Z2L0 whole entry): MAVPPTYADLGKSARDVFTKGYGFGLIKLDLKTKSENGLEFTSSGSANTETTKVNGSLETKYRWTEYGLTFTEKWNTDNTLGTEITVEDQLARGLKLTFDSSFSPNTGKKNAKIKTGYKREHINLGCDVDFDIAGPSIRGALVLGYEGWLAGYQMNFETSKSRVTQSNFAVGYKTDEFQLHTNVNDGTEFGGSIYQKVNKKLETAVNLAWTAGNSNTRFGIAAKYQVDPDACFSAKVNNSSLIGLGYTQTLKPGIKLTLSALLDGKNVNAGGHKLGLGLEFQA
Excerpt: The direct interaction between VDAC and the compounds of general Formulae (I), (Ia), (Ib), (Ic), (Id), (II) and (IIa), especially the specific compounds of Formulae 1, 2, 3, 10 and 11, may be measured by assessing VDAC channel conductance, following its reconstitution into a planar lipid bilayer (PLB). The compounds of the general Formulae (I), (Ia), (Ib), (Ic), (Id), (II) and (IIa), interact with VDAC and reduce its channel conductance. To obtain quantitative parameters of this interaction and derive a dissociation constant, e.g. a microscale thermophoresis (MST) interaction assay may be performed. In this manner, dissociation values are derived from the curves showing the affinity of the compounds of the invention to VDAC.
Briefly, rat liver mitochondria (5 mg/ml) in 10 mM Tris-HCl, pH 7.2, were incubated with 2% LDAO at 0° C. for 20 min, followed by centrifugation (30 min, 14,000 g) and the obtained supernatant was loaded onto a dry celite:hydroxyapatite (2:1) column. VDAC1 was eluted with a solution containing 2% LDAO, 10 mM Tris-HCl, pH 7.2, 50 mM NaCl, and 20 to 22 mM NaH2PO4, with VDAC1 detection by Coomassie blue staining. The VDAC1-containing fractions were dialyzed against 10 mM Tris-HCl, pH 7.2, and subjected to a second chromatography step on a carboxymethyl-cellulose (CMC) column from which VDAC1 was eluted with a solution containing 10 mM Tris-HCl, pH 7.2, 0.1% LDAO and 500 mM NaCl, detected as above. The VDAC1-containing fractions were collected and used for VDAC1 channel conductance and MST assays.
The reconstitution of purified rat VDAC1 into a planar lipid bilayer (PLB) and subsequent single and multiple channel current recordings and data analysis were carried out as follows. Briefly, the PLB was prepared from soybean asolectin dissolved in n-decane (30 mg/ml). Purified VDAC1 (1 ng) was added to the chamber defined as the cis side containing 1 M NaCl, 10 mM Hepes, pH 7.4. Currents were recorded under voltage-clamp using a Bilayer Clamp BC-535B amplifier (Warner Instrument, Hamden, Conn.). The currents, measured with respect to the trans side of the membrane (ground), were low-pass-filtered at 1 kHz and digitized online using a Digidata1440-interface board and pClampex 10.2 software (Axon Instruments, Union City, Calif.).
VDAC1 was purified as described above in Methods (VDAC1 purification). Purified VDAC1 was reconstituted into a planar lipid bilayer (PLB) membrane and currents through VDAC1, in response to a voltage steps from 0 to +10 mV, from 0 to −10 mV, from 0 to +40 mV, and from 0 to −40 mV, were recorded before and 15 min after the addition of 20 μM of the compound of Formula 3 (VBIT-12).
Solid circles indicate conductance without VBIT-12, open circles with 20 μM VBIT-12.
Further, the VDAC1 channel conductance was measured with the increasing concentrations of VBIT-12, or of compound of Formula 1 (VBIT-4). Concentration dependence of VBIT-12 reducing VDAC1 channel conductance was measured at +10 my and at −10 mV.

HeLa cells = assay: Selenite-induced cell death in HeLa cells, PI staining and flow cytometry; format: cell-based
Description: (§1) Cells, e.g. HeLa cells (2×10^5), untreated or treated with apoptosis-inducing reagents, were analyzed for apoptotic cell death using PI, annexin V-FITC and flow cytometer analysis. Cells were collected (1500×g for 10 min), washed, and resuspended in 200 μl binding buffer (10 mM HEPES/NaOH, pH 7.4, 140 mM NaCl, and 2.5 mM CaCl2). Annexin V-FITC was added according to the recommended Protocol (Enzo Life Sciences, Switzerland), and the cells were incubated in the dark for 15 min. Cells were then washed with binding buffer and resuspended in 200 μl binding buffer, to which PI was added immediately before flow cytometry analysis. At least 10,000 events were collected, recorded on a dot plot, and analyzed by the FACSCalibur™ flow cytometer software (BD Biosciences, Franklin Lakes, N.J.).
HeLa cells were incubated with varying concentrations (2-20 μM) of racemic compound of Formula 1 (VBIT-4) and of the enantiomers of compound of Formula 1 (VBIT-4-1 and VBIT-4-2) for 1 hour, and then with or without selenite (25 μM, 3 hours). Cells were harvested and assayed for apoptotic cell death, using PI staining and FACS analysis. The results shown in the FIG. 14b correspond to means±SD (n=3).
Cells (2.5 mg/ml) were washed with and resuspended in PBS, pH 8.3 and incubated with membrane-permeable cross-linker EGS (250 μM) at 30° C. for 15 min and then subjected to SDS-PAGE and immunoblotting using anti-VDAC1 antibodies. Several anti-VDAC1 antibody-labeled protein bands were obtained upon exposure to the apoptosis stimuli that are correspond to VDAC1 dimers, trimers, tetramers and multimers. Cell death as induced by selenite and inhibited by the compound of Formula 3 (VBIT-12) or compound of Formula 11 (DIV00781) is shown (FIG. 21B), with closed circles corresponding to the compound of Formula 3 and open circles corresponding to the compound of Formula 11. Cell death was analyzed using propidium iodide (PI) staining and flow cytometry.

[1] = IC50 for several activities / effective range (activity not specified); conditions: quoted for comparison with brain levels
HEK-293 cells = assay: Selenite-induced apoptosis, annexin V-FITC/PI staining and FACS, HEK-293 cells; format: cell-based; conditions: Homo sapiens, HEK293, compound 2 h then selenite 15 μM 4 h, means±SD (n=3)
Description: The ability of the compounds of general Formulae (I), (Ia), (Ib), (Ic), (Id), (II) and (IIa) to inhibit apoptosis may be analyzed by annexin-V/propidium iodide (PI) staining and flow cytometry.
as §1
b. Additionally, the inhibition of selenite-induced apoptosis by the compounds as analyzed using annexin V-FITC/PI staining and FACS, presented in the FIG. 15c.
d. IC50 values of the tested compounds were derived from the obtained data. The results shown correspond to means±SD (n=3).

Row | IC50 (purified rat VDAC1) | Max Inhibition (maximal reduction in channel conductance) (purified rat VDAC1) | IC50 [1] | affinity to VDAC1 relative to VBIT-4 (purified rat VDAC1; from concentration dependence of channel conductance) | SMILES | apoptotic cell death (HeLa cells; 2-20 μM 1 hour, then selenite 25 μM 3 hours) | IC50 (HEK-293 cells) | decrease in maximal channel conductance relative to VBIT-4 (purified rat VDAC1) | VDAC1 conductance in multi-channel experiments as function of voltage (purified rat VDAC1; 20 μM) | VDAC1 channel conductance (purified rat VDAC1; 20 μM, 15 min after addition, voltage steps 0 to ±10 mV and ±40 mV) | cell death as induced by selenite (HeLa cells; 22 h with selenite 8 μM and increasing concentrations)
1 | 15 µM | 50% | 1 µM |  | O=C(CC(CO)N1CCN(c2ccc(OC(F)(F)F)cc2)CC1)Nc1ccc(Cl)cc1 (racemic) [Formula 1, N-(4-chlorophenyl)-4-hydroxy-3-(4-(4-(trifluoromethoxy)phenyl)-piperazin-1-yl)butanamide] | Inhibit Apoptotic Cell Death | 2.9 ± 0.12 µM |  |  |  | 
2 | 5 µM | 80% |  | higher affinity than VBIT-4 | O=C(O)CNC(=O)C1(Nc2ccccc2)CCN(Cc2cccc3ccccc23)CC1 [Formula 3] |  |  | higher decrease in the maximal channel conductance | stabilizing VDAC1 at a low conductance state at all voltages tested | Channel conductance was reduced and the channel was stabilized in a low conducting state | inhibited
